Reference: a melting point compilation (Tetko et al.; mined from patent text by program, amines drawn as free bases though some values may be those of a salt)

Row | SMILES | melting point
1 | COc1ccccc1C(CCNC(C)(C)C)c1cc(Cl)ccc1OC (centres undefined) | > 260 °C
2 | COc1ccc(-c2cc(C(F)F)nn2-c2ccc(S(N)(=O)=O)cc2)cc1 | 133 to 135 °C
3 | CC1N=C(c2ccccn2)c2cc(Br)ccc2NC1=O (centres undefined) | 227 to 229 °C
4 | CCc1ccc(-c2nnc(N3CCC(O)CC3)nc2-c2ccc(CC)cc2)cc1 | 164 to 166 °C
5 | Nc1ncc(-c2ccc3ncc(-c4ccc(CO)cc4)n3n2)cc1C(F)(F)F | 290 to 292 °C
6 | COc1ccccc1-c1ccc2ccc(N)nc2n1 | 182 °C
7 | O=C(SC(SC(=O)c1ccccc1)C(=O)O)c1ccccc1 | 82 to 83 °C
8 | O=C1C2CCCCC2C(=O)N1c1c(F)cc(F)cc1F (centres undefined) | 129 to 131 °C
9 | O=C1CC(C2CCCC2)CN1 (centres undefined) | 117 to 119 °C
10 | Cc1cc(C)c(C)c(C(=O)CCl)c1C | 65.5 °C
11 | CCN1c2ncccc2C(=O)N(C)c2ccc(O)nc21 | 215 to 218 °C
12 | COc1c(C)c(C)c(OC)c(C(O)(c2ccc(F)cc2)C(C)C)c1C (centres undefined) | 129 to 130 °C
13 | CC(Oc1ccc(Oc2cnc3cc(Cl)ccc3n2)cc1)C(=O)Nc1ccc(C(F)(F)F)cc1 (centres undefined) | 176 to 178 °C
14 | CCCCc1nnc(-c2ccc(N)cc2)o1 | 125 °C
15 | CCC(CC)n1ncn(-c2ccc(N3CCNCC3)cc2)c1=O | 135 to 137 °C
16 | CC(=O)Oc1ccc(NC(C)=C2C(=O)OC(=O)C(C(C)=O)=C2O)cc1 | 199 to 201 °C
17 | O=c1[nH]cccc1CO | 203 to 205 °C
18 | FC(F)(F)COc1ccc(OCc2ccccc2)cc1 | 72 to 74 °C
19 | CS(=O)(=O)c1ccccc1SCc1ccccc1 | 132 to 133 °C
20 | COc1ccc(C2(C#N)CC2)cc1OC1CCCC1 | 80.4 °C
21 | CCNc1cccnc1N1CCN(C(=O)c2ccc(C(=O)N3CCN(CCO)CC3)cc2)CC1 | 152 to 153 °C
22 | Cc1cc(C)nc(NC(=O)NS(=O)(=O)c2cc(Cl)sc2Cl)n1 | 192 to 194 °C
23 | O=C(CNc1ccc2[nH]c(=O)[nH]c2c1)N1CCC(Cc2ccccc2)CC1 | 237 to 238 °C
24 | CCc1c(-c2ccc(O)cc2)c2ccc3c(NC(C)=O)ccc1n32 | 147 to 149 °C
25 | O=C(NC1Cc2ccc(-c3ccc(F)cc3)cc2C1)c1ccc(F)cc1 (centres undefined) | 193 °C

Row | SMILES | melting point
26 | O=C1CCCc2c1c1cccc(F)c1n2Cc1ccc(F)cc1 | 177 to 178 °C
27 | CC(Cc1cc2ccccc2[nH]1)(NC(=O)OC1C2CC3CC(C2)CC1C3)C(=O)NCC(NC(=O)CCC(=O)OCc1ccccc1)c1ccccc1 (centres undefined) | 109 to 113 °C
28 | CN(C(CCn1c(=O)cc(C(F)(F)F)[nH]c1=O)C(=O)NO)S(=O)(=O)c1ccc(Oc2ccncc2)cc1 (centres undefined) | 116 to 118 °C
29 | N#CC1(N2CCC(n3c(=O)[nH]c4ccccc43)CC2)CCCCC1 | 199 to 201 °C
30 | COc1ccc(C#N)cc1-c1cc(-c2cccc(C#N)c2)on1 | 241 to 243 °C
31 | COC(=O)c1ccc(C2=NOC(P(=O)(OC)OC)C2)cc1 (centres undefined) | 93 °C
32 | Cc1cccc(-c2ccnc3c(C#N)cnn23)c1 | 161 to 162 °C
33 | N#Cc1[nH]c2ccc(Cl)cc2c1-c1ccccc1 | 115 to 117 °C
34 | CCc1cc(CCCc2ccc(CO)c(CO)c2)ccc1O | 82 °C
35 | O=[N+]([O-])c1cc(Cl)ccc1I(Cl)Cl | 53 to 60 °C
36 | Cc1cc(-c2nc3c(Cl)cccc3c(=O)[nH]2)cc(C)c1OCCN1CCCC1 | 216 to 217 °C
37 | Cc1cnccc1N1CCN(CC(=O)c2ccc(NS(C)(=O)=O)cc2)CC1 | 201 to 205 °C
38 | CS(C)=NS(=O)(=O)c1ccc(N2CC(CO)OC2=O)cc1 (centres undefined) | 162 to 164 °C
39 | CC(=O)O[C@@](Cn1cncn1)(c1ccc(F)cc1F)[C@@H](C)S(=O)(=O)Cl | 110 to 115 °C
40 | Nc1nc2c(ncn2OCCCP(=O)(O)O)c(=O)[nH]1 | > 300 °C
41 | O=C(Nc1ccc([N+](=O)[O-])cc1)N1CCN(c2nc(-c3ccccc3)nc3ccccc23)CC1 | 236 to 238 °C
42 | CCOC(=O)C1=C2NCCN2C(C)=C(C(=O)OC)C1c1ccccc1[N+](=O)[O-] (centres undefined) | 185 °C
43 | CN1CCN(C(=O)c2c(N3CCN(C(=O)c4ccco4)CC3)n(-c3ccccc3)c3ccccc23)CC1 | 180 to 181 °C
44 | CCn1ncnc1COc1nn2c(-c3ccccc3F)nncc2c1-c1ccccc1F | 164 °C
45 | O=C(c1ccncc1)c1cc2c(c(C(=O)O)c1)OC(c1ccccc1)(c1ccccc1)O2 | 256 to 257 °C
46 | CC(C)(C)C(=O)C(F)n1cncn1 (centres undefined) | 54 to 55 °C
47 | COC(=O)C=C(N)CC(=O)OC | 47 to 50 °C
48 | CNN(NC)C(=O)Sc1cccnc1C(=O)OC | 56 to 58 °C
49 | CC(C)(C)NC[C@H](Cc1ccc(OCc2ccccc2)cc1)NC(=O)OC(C)(C)C | 77 to 79 °C
50 | NS(=O)(=O)c1cccc(NC(=O)c2cnn3c(C4CC4)cc(-c4ccc(C(F)(F)F)cc4)nc23)c1 | 249 to 250 °C

Row | SMILES | melting point
51 | CCc1nc(/C=C/c2cn(-c3ccccc3)nc2OCc2ccc(OCc3nc(-c4cccc(-c5noc(=O)[nH]5)c4)oc3C)c(OC)c2)cs1 | 139 to 140 °C
52 | O=C(Cn1c(-c2ccc(Br)cc2)nc2cccnc21)Nc1ccccc1Cl | 230 to 232 °C
53 | CCCC(=O)Nc1cc2c(s1)CCN(C(C(=O)C1CC1)c1ccccc1F)C2 (centres undefined) | 154 to 157 °C
54 | COC1=c2ccccc2=c2ccc(Cl)cc2=C(c2ccccc2F)N1 | 136 to 138 °C
55 | ON=Cc1ccc2c(c1)ncn2-c1cccc(COCc2ccccn2)c1 | 154 to 155 °C
56 | O=[N+]([O-])c1cccc(Nc2nc(Cl)nc(Cl)n2)c1 | 173 °C
57 | O=C(O)c1ccc(C(=O)Nc2cccc(Nc3nc(-c4cccnc4)cs3)c2)cc1 | 299 °C
58 | CC(C)(N)CNC(N)=O | 58 to 62 °C
59 | COC(=O)NNc1cc(C)cc2c1OC(C)C2 (centres undefined) | 82 to 84 °C
60 | CCC1(CCO)C(=O)N2CC=CC(C(=O)OC)N2C1=O (centres undefined) | 87 to 92 °C
61 | CCCC1C/C(=C\C(=O)NC2CC2)c2cc(F)ccc21 (centres undefined) | 94 to 97 °C
62 | O=C(Cc1ccc(OCc2ccccc2)cc1OCc1ccccc1)N1CCN(Cc2ccccc2)CC1 | 104 to 106 °C
63 | COc1cc(N)c(Cl)cc1C(=O)NCC1CCN(CCCCCNC(=O)c2ccc(Cl)cc2)CC1 | 196 to 198 °C
64 | COC(=O)C=C1c2ccccc2C=C(OC)c2sccc21 | 124 to 125 °C
65 | Nc1cc(Cl)ccc1-n1cccc1 | 89 to 90 °C
66 | N#CCOc1ccc(F)c(C(N)=O)c1F | 122 to 123 °C
67 | CC(CO)N1c2ccccc2Sc2ccc(C#N)cc21 (racemic) | 123 °C
68 | CC1(C2CCCC2)Cc2cc(OCCBr)c(Cl)c(Cl)c2C1=O (centres undefined) | 124 to 125 °C
69 | Cn1c2c(c3ccccc31)CC(OC(=O)c1ccccc1)CC2 (centres undefined) | 93 to 96 °C
70 | Cc1cc(-c2ccc(C(=O)O)cc2)ccn1 | 293 to 294 °C
71 | CCOC(=O)CCC1CCN(C(=O)[C@H](C)NC(=O)c2ccc(C(O)=NN)cc2)CC1 | 194 to 195 °C
72 | NC(=NOCC1CC1)c1c(F)cccc1C(F)(F)F | 63 to 64 °C
73 | CCNC(=S)n1nc(Oc2ncc(C(F)(F)F)cc2Cl)cc1C | 74 to 75 °C
74 | CCOC(=O)Cc1ccc(OCc2ccccc2)c2c1OCCO2 | 86 °C
